According to paper PMC4859512, “Polyamino-Isoprenic Derivatives Block Intrinsic Resistance of P. aeruginosa to Doxycycline and Chloramphenicol In Vitro” (PLoS ONE, 2016):
Where “and” joins values, the source holds several entries; their conditions need not be identical. Equal values may be shown once.

Legend:
[1] = tested on: P. aeruginosa FB1 (Mex B deleted); assay: Antibiotic susceptibility testing (broth micro-dilution MIC), strain FB1; format: cell-based; details: Pseudomonas aeruginosa, read-out: Minimal Inhibitory Concentration
Description: Experiments were performed on the BAC-SCREEN platform of the UMR-MD1, with a Freedom EVO 150 liquid handling system (Tecan, Lyon, France).

[2] = tested on: twenty clinical isolates of P. aeruginosa; assay: Combined antibiotic / polyamino-isoprenic derivative on MH agar plates, clinical isolates; format: cell-based, Pseudomonas aeruginosa
Description: MH agar plates were prepared, containing 2 mg/L doxycycline and 2 mg/L doxycycline in combination with compounds at a concentration of 10 μM. Bacteria, 5 μL of a suspension of each clinical isolate adjusted to 5 x 10^5 colony-forming units per ml were spotted on each plate and growth was monitored after a 18 h period of incubation at 37°C.
PA01 is a well-studied reference strain of P. aeruginosa, however to extend our study we considered strains recently isolated from hospitalized patients. Thus, we decided to test this combination of doxycycline (2mg/L) with polyamino-isoprenic compounds (10 μM) on twenty clinical isolates recently isolated from the HIA-Laveran (see M&M section and S1 Table).

P. aeruginosa PA01 = assay: Checkerboard assay with doxycycline; format: cell-based, Pseudomonas aeruginosa; details: PA01
Description: Serial two-fold dilutions of antimicrobial agents were mixed together in a microtiter plate. The range of concentration of each drug was twice the MIC, down to the eleventh serial two-fold dilutions below this amount. Doxycycline was serially diluted along the X-axis, and the polyamino-isoprenic compound or PAßN was diluted along the Y-axis as indicated. Each well was inoculated with a bacterial inoculum of 5 x 10^5 CFU/ml, and the plates were incubated at 37°C for 18 h under aerobic conditions. Each plate also contained a row and a column in which a serial dilution of polyamino-isoprenic compound or doxycycline, respectively, was present alone to determine the MIC. The FIC index was calculated as follows: FIC index = FIC A + FIC B, where FIC A is the MIC of drug A in the combination/MIC of drug A alone and FIC B is the MIC of drug B in the combination/MIC of drug B alone. The combination was considered synergistic when the FIC index is ≤0.5, and antagonistic when the FIC index is > 4 [26].

P. aeruginosa strains = assay: Synergy assays of compound 3 with representative anti-pseudomonal agents (summary in words, all strains); format: cell-based, Pseudomonas aeruginosa
Description: We concluded that compound 3 was the best compound and suitable for a more detailed study. The same experiment was performed using chloramphenicol (4 mg/L) in combination with 3 (10 μM final concentration). Amongst the 20 clinical isolates, the growth of 15 (75%) was impaired, while 5 (25%) were resistant (data not shown). These experiments were performed to study the effect of our compounds on the natural resistance of P. aeruginosa. In addition, we were wondering if compound 3 could also increase susceptibility to other antibiotic families including ß-Lactams, fluoroquinolones and aminoglycosides, that are representative of the main classes of anti-pseudomonal agents. Experiments were performed with the ß-lactams ceftazidime and ticarcillin and ciprofloxacin and amikacin. […]. […] To better characterize compound 3, we first searched for the minimum concentration of compound that allowed killing of bacteria by doxycycline, and PAßN was used as the reference molecule.

CHO-K1 cells = assay: cells; format: cell-based, Chinese Hamster; details: Cricetulus griseus, CHO-K1; WST1, 24 h; mean +/- SD, 2 independent experiments
Description: CHO-K1 cells (ATCC-LGC Standards Sarl (Molsheim, France) and human fibroblasts (Clinisciences, Paris, France) were maintained in McCoy’s 5A and DMEM media, respectively, supplemented with 10% bovine calf serum, 2 mM glutamine, and 100 U/mL/10 μg/mL penicillin/streptomycin. They were incubated at 37°C in a humidified atmosphere containing 5% CO2. The cell lines were seeded in 96-well plates and incubated overnight. The cytotoxic effects of compounds were assessed by the colorimetric WST-1 cell proliferation assay as previously described. Briefly, a range of compound concentrations from 30 μM to 1200 μM was added to triplicate cultures, and cells were incubated at 37°C for 24 h. At the end of the incubation period, cultures were washed three times with phosphate buffer saline (PBS) and incubated in fresh culture medium containing 10% WST-1 for an additional 30 min. Cell viability was evaluated by measuring the WST-1 absorbance at 450 nm in a microplate spectrophotometer MRX1 II (Dynex technologies, Chantilly, VA, USA). The Inhibitory Concentration 50% (IC50) was chosen to evaluate the cytotoxicity of compounds. IC50 was defined as the concentration of a compound that induced a 50% decrease in viable cells. Doxorubicin was used as a positive control.

[3] = chloramphenicol 4 mg/L + compound 10 μM
[4] = doxycycline MIC in the combination 0.0625 µg/ml
[5] = doxycycline MIC in the combination 0.125 µg/ml
[6] = doxycycline MIC in the combination 0.25 µg/ml
[7] = doxycycline MIC in the combination 0.5 µg/ml
[8] = doxycycline MIC in the combination 1 µg/ml
[9] = doxycycline MIC in the combination 2 µg/ml
[10] = doxycycline MIC in the combination 4 µg/ml
[11] = doxycycline MIC in the combination 8 µg/ml
[12] = doxycycline MIC in the combination 16 µg/ml

## CC(C)=CCCC(C)=CCCC(C)=CCNCCCNCCCCNCCCN [Compound 3]
[1]
  MIC: 25 µg/mL and 62.5 µM
[2]; [3]
  clinical isolates resistant: 25%
  clinical isolates resistant (number of 20): 5
  clinical isolates whose growth was impaired: 75%
[2]; chloramphenicol 4 mg/L + compound 10 μM, data not shown
  clinical isolates whose growth was impaired (number of 20): 15
[2]; clinical isolates, with compound
  MIC ratio (doxycycline): 32
[2]; doxycycline 2 mg/L + compound 10 μM, 20 clinical isolates
  isolates with doxycycline susceptibility restored: total susceptibility of all the considered isolates
P. aeruginosa PA01; [4]
  Concentration of compound associated: 93.75 µM
  FIC index: 1
P. aeruginosa PA01; [5]
  Concentration of compound associated: 46.88 µM
  Effect: Synergistic (synergistic when the FIC index is ≤0.5)
  FIC index: 0.50
P. aeruginosa PA01; [6]
  Concentration of compound associated: 23.44 µM
  Effect: Synergistic (synergistic when the FIC index is ≤0.5)
  FIC index: 0.26
P. aeruginosa PA01; [7]
  Concentration of compound associated: 11.72 µM
  Effect: Synergistic (synergistic when the FIC index is ≤0.5)
  FIC index: 0.14
P. aeruginosa PA01; [8]
  Concentration of compound associated: 5.86 µM
  Effect: Synergistic (synergistic when the FIC index is ≤0.5)
  FIC index: 0.09
P. aeruginosa PA01; [9]
  Concentration of compound associated: 2.93 µM
  Effect: Synergistic (synergistic when the FIC index is ≤0.5)
  FIC index: 0.09
P. aeruginosa PA01; [10]
  Concentration of compound associated: 2.93 µM
  Effect: Synergistic (synergistic when the FIC index is ≤0.5)
  FIC index: 0.16
P. aeruginosa PA01; [11]
  Concentration of compound associated: 0.73 µM
  Effect: Synergistic (synergistic when the FIC index is ≤0.5)
  FIC index: 0.26
P. aeruginosa PA01; [12]
  Concentration of compound associated: 0.18 µM
  Effect: Synergistic (synergistic when the FIC index is ≤0.5)
  FIC index: 0.50
P. aeruginosa PA01; combination with doxycycline
  FIC index: 0.09
P. aeruginosa strains; all strains with the exception of PA0-7H
  synergy with ciprofloxacin: No synergistic effect
P. aeruginosa strains; all the strains
  effect of combination with ticarcillin: slight effect
P. aeruginosa strains; every strains
  effect on the MIC of amikacin: surprising increase of the MIC
CHO-K1 cells
  IC50: 320 ± 41.2 µM
